US20090004166A1, “Carrier For Enternal Administration” (priority 2004, published 2009)

Tested on: Sprague-Dawley rats
Details: oral gavage, 5 mg/kg, heat source ~45° C.
Procedure: The effect was measured by comparison of times taken for a rat to withdraw its paw in response to heat when medicated and unmedicated with morphine.
Animals: Nine conscious Sprague-Dawley rats weighing between 350-450 grams each Treatment groups: • 1. […] Morphine with TPm: morphine HCl (14%) in a carrier containing water (59%) and a tocopheryl phosphate mixture (27%) (TPm). The TPm contained mono-tocopheryl phosphate and di-tocopheryl phosphate.
Formulations 2 and 3 were diluted with water and the final morphine concentration was made up to 5 mg/ml. […] This liquid formulation was then delivered to the animals by oral gavage (tube into stomach).
The experiment used nine rats that were divided into three groups. […]
Analgesic testing was performed at 1, 2, 4 and 6 hours and at each time point withdrawal latency was measured three times on each rat (with at least five minutes rest if using the same paw).
A plantar analgesiometer designed for rapid and efficient screening of analgesia levels in small laboratory animals was used. The device applied a heat source (˜45° C. from an infrared light) to the animal's hindpaw and the time taken to withdraw the paw from the heat source was measured (paw withdrawal latency). […] The animal was placed on a hot plate, confined by a clear acrylic cage which surrounds the plate and paw withdrawal response was monitored. […]

CN1CC[C@]23c4c5ccc(O)c4O[C@H]2[C@@H](O)C=C[C@H]3[C@H]1C5.O=S(=O)(O)O [morphine sulphate]
paw withdrawal latency (analgesia): increase in latency
